Reference: ChEMBL document CHEMBL3120149, “A multiple free-radical scavenging (MULTIS) study on the antioxidant capacity of a neuroprotective drug, edaravone as compared with uric acid, glutathione, and trolox” (Bioorg Med Chem Lett, 2014)

Legend:
Assay type in all cases: functional
[1] = Antioxidant activity assessed as AAPH-induced alkoxyl radical scavenging activity by ESR spin trapping method
[2] = Antioxidant activity assessed as H2O2-induced hydroxyl radical scavenging activity by ESR spin trapping method
[3] = Antioxidant activity assessed as t-butylhyroperoxide-induced alkylperoxyl radical scavenging activity by ESR spin trapping method relative to CYPMPO
[4] = Antioxidant activity assessed as AAPH-induced alkoxyl radical scavenging activity by ESR spin trapping method relative to CYPMPO
[5] = Antioxidant activity assessed as DMSO/H2O2-induced methyl radical scavenging activity by ESR spin trapping method
[6] = Antioxidant activity assessed as DMPO/H2O2-induced hydroxyl radical scavenging activity by fast-flow EPR technique
[7] = Antioxidant activity assessed as DMSO/H2O2-induced methyl radical scavenging activity by ESR spin trapping method relative to DMPO
[8] = Antioxidant activity assessed as H2O2-induced hydroxyl radical scavenging activity by ESR spin trapping method relative to CYPMPO
[9] = Antioxidant activity assessed as riboflavin/EDTA-induced superoxide anion radical scavenging activity by ESR spin trapping method relative to CYPMPO
[10] = Antioxidant activity assessed as riboflavin/EDTA-induced superoxide anion radical scavenging activity by ESR spin trapping method
[11] = Antioxidant activity assessed as rosebengal-induced singlet oxygen radical scavenging activity by ESR spin trapping method relative to 4-OH-TEMP
[12] = Antioxidant activity assessed as hydroxyl radical scavenging activity
[13] = Antioxidant activity assessed as rosebengal-induced singlet oxygen radical scavenging activity by ESR spin trapping method
[14] = Antioxidant activity assessed as t-butylhyroperoxide-induced alkylperoxyl radical scavenging activity by ESR spin trapping method

CC1=NN(c2ccccc2)C(=O)C1
K [1]: 3.16 ×10⁶ /M/s
K [2]: 298 ×10⁹ /M/s
Ratio [3]: 39
Ratio [4]: 139
K [5]: 30 ×10⁶ /M/s
K [6]: 3 ×10¹⁰ /M/s
Ratio [7]: 2.14
Ratio [8]: 28.7
Ratio [9]: 61.1
K [10]: 2.93 ×10³ /M/s
Ratio [11]: 306
K [12]: 1.4 ×10¹⁰ /M/s
K [13]: 27.5 ×10⁶ /M/s

Oc1nc(O)c2nc(O)[nH]c2n1
K [1]: 9.9 ×10⁶ /M/s
K [2]: 9.3 ×10⁹ /M/s
Ratio [3]: 0
Ratio [4]: 436
K [5]: 0 M⁻¹ s⁻¹
Ratio [7]: 0
Ratio [8]: 0.894
Ratio [9]: 222
K [14]: 0 M⁻¹ s⁻¹
K [10]: 10.7 ×10³ /M/s
Ratio [11]: 25.7
K [13]: 2.31 ×10⁶ /M/s

CC1(C)COP(=O)(C2(C)CCC=[N+]2[O-])OC1 (stereo not given)
K [1]: 2.27 ×10⁴ /M/s
K [10]: 48 M⁻¹ s⁻¹

N[C@@H](CCC(=O)N[C@@H](CS)C(=O)NCC(=O)O)C(=O)O
K [1]: 2.73 ×10⁶ /M/s
K [2]: 16.5 ×10⁹ /M/s
Ratio [3]: 4.09
Ratio [4]: 121
K [5]: 1.99 ×10⁶ /M/s
Ratio [7]: 0.142
Ratio [8]: 1.59
Ratio [9]: 23.3
K [10]: 1.12 ×10³ /M/s
Ratio [11]: 10400
K [13]: 939 ×10⁶ /M/s

CC1(C)CCC=[N+]1[O-]
K [2]: 2.8 ×10⁹ /M/s
K [5]: 1.4 ×10⁷ /M/s

C[C@@H]1O[C@@H](OC[C@H]2O[C@@H](Oc3c(-c4ccc(O)c(O)c4)oc4cc(O)cc(O)c4c3=O)[C@H](O)[C@@H](O)[C@@H]2O)[C@H](O)[C@H](O)[C@H]1O
K [1]: 6.9 ×10⁶ /M/s
K [10]: 1.5 ×10⁴ /M/s
K [13]: 3.5 ×10⁸ /M/s

Cc1c(C)c2c(c(C)c1O)CCC(C)(C(=O)O)O2 (stereo not given)
K [1]: 4.83 ×10⁶ /M/s
K [2]: 24.8 ×10⁹ /M/s
Ratio [3]: 0
Ratio [4]: 214
K [5]: 4.72 ×10⁶ /M/s
Ratio [7]: 0.337
Ratio [8]: 23.8
Ratio [9]: 43.8
K [14]: 0 M⁻¹ s⁻¹
K [10]: 2.1 ×10³ /M/s
Ratio [11]: 692
K [13]: 62.2 ×10⁶ /M/s
